Source: ChEMBL document CHEMBL5247598 (Eur J Med Chem, 2022)
Calls of active or inactive are those of the source. The rule behind the calls is not given here.

Columns and labels:
[1] = test system: NCI-ADR-RES; experiment: Inhibition of PI3K/AKT signaling pathway in human NCI-ADR-RES cells assessed as increase in cleaved PARP level at 3 uM incubated for 24 to 48 hrs in presence of doxorubicin by Western blot analysis; type: cell-based; details: time 24-48 hrs
[2] = test system: NCI/ADR-RES; experiment: Induction of apoptosis in human NCI-ADR-RES cells assessed as viable cells at 8 uM incubated for 48 hrs in presence of doxorubicin by Annexin V-FITC and DAPI staining based flow cytometry (Rvb= 97.9 %); type: functional; details: read-out: Activity
[3] = test system: NCI/ADR-RES; experiment: Reversal of P-gp-mediated multidrug resistance in human NCI-ADR-RES cells assessed as change in ABCB1 expression level at 1 to 10 uM incubated for 24 hrs in presence of doxorubicin by Western blot analysis; type: functional, cell-based; details: dose 1-10 µM
[4] = test system: NCI/ADR-RES; experiment: Induction of apoptosis in human NCI-ADR-RES cells assessed as necrotic cells at 3 uM incubated for 48 hrs by Annexin V-FITC and DAPI staining based flow cytometry (Rvb= 0.55 %); type: functional
[5] = test system: NCI/ADR-RES; experiment: Induction of apoptosis in human NCI-ADR-RES cells assessed as late apoptotic cells at 3 uM incubated for 24 hrs by Annexin V-FITC and DAPI staining based flow cytometry (Rvb= 0.66 %); type: functional
[6] = test system: NCI/ADR-RES; experiment: Antiproliferative activity against human multidrug resistant NCI-ADR-RES cells assessed as inhibition of cell growth at 50 uM incubated for 48 hrs by MTT assay; type: functional, cell-based
[7] = test system: MCF7; experiment: Antiproliferative activity against human MCF7 cells assessed as inhibition of cell growth at 50 uM incubated for 48 hrs by MTT assay; type: functional, cell-based
[8] = test system: NCI-ADR-RES; experiment: Inhibition of PI3K/AKT signaling pathway in human NCI-ADR-RES cells assessed as decrease in Bcl-xL level at 3 uM incubated for 24 to 48 hrs in presence of doxorubicin by Western blot analysis; type: cell-based; details: time 24-48 hrs
[9] = test system: NCI/ADR-RES; experiment: Reversal of P-gp-mediated multidrug resistance in human NCI-ADR-RES cells assessed as change in ABCB1 expression level at 1 to 10 uM incubated for 24 hrs by Western blot analysis; type: functional, cell-based; details: dose 1-10 µM
[10] = test system: NCI-ADR-RES; experiment: Inhibition of PI3K/AKT signaling pathway in human NCI-ADR-RES cells assessed as decrease in AKT phosphorylation at 3 uM incubated for 24 to 48 hrs in presence of doxorubicin by Western blot analysis; type: cell-based; details: time 24-48 hrs
[11] = test system: A549/TR; experiment: Antiproliferative activity against human Taxol resistant A549 cells assessed as inhibition of cell growth at 50 uM incubated for 48 hrs by MTT assay; type: functional, cell-based
[12] = test system: HCT-8; experiment: Antiproliferative activity against human Taxol resistant HCT-8 cells assessed as inhibition of cell growth at 50 uM incubated for 48 hrs by MTT assay; type: functional, cell-based

C=C1[C@H](OC(C)=O)[C@@H](OC(C)=O)[C@@H](OC(C)=O)C(C)(C)/C=C/[C@H](C)[C@H](OC(=O)c2ccccc2)[C@@]2(O)C[C@@](C)(OC(=O)C(C)(C)C)[C@H](OC(C)=O)[C@@H]2[C@H]1OCC(C)C
inhibition [1]: Active
viability at 8 µM [2]: 65%
Activity [3]: Active
Activity [4]: 0.43%
Activity [5]: 0.73%
Activity [6]: inactive
Activity [7]: inactive
inhibition [8]: Active
Activity [9]: inactive
inhibition [10]: Active
Activity [11]: inactive
Activity [12]: inactive
